Assay results: PMC9011347, “Small-Molecule Inhibitors Targeting Lipolysis in Human Adipocytes” (Journal of the American Chemical Society, 2022)

Experiments:
human ATGL = target: T1, human ATGL (Homo sapiens, UniProt Q96AD5); test: TAG hydrolase assay, lysates of Expi293 cells overexpressing ATGL, purified CGI-58, radiolabeled triolein; assay type: biochemical; details: inhibition of TAG hydrolase activity of human ATGL, Expi293 lysates, purified CGI-58, radiolabeled triolein
T1 construct: host or cells: Expi293 cells, crude lysate
T1 sequence (Q96AD5 1-504): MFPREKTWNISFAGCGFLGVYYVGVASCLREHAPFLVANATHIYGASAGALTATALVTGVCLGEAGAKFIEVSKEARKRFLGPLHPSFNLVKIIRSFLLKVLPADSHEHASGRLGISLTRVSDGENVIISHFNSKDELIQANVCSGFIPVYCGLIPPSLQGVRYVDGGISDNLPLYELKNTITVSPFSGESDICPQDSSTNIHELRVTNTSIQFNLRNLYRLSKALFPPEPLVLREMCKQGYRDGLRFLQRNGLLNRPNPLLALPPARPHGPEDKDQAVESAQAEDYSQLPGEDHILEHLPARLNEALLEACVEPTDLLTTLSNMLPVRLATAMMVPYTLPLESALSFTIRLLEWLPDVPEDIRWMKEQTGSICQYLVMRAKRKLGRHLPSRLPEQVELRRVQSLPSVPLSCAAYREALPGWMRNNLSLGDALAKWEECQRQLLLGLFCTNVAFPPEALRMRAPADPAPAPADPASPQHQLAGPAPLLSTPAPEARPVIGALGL
Source text: We previously developed Atglistatin (Ai), a selective inhibitor of mouse ATGL,[31],[32] which is ineffective against human ATGL.[17] Ai acts as a competitive inhibitor targeting the minimal active domain of ATGL ranging from aa 1–254.[33] This domain is highly conserved in different mammalian species (∼90% identity, Table 1) and comprises the patatin-like domain, eponymous for all members of the patatin-like phospholipase domain-containing (PNPLA) protein family.[34] We first investigated the species selectivity of Ai by performing TAG hydrolase assays[35] with lysates from Expi293 cells expressing ATGL orthologues of different species. The activity of ATGL is strongly stimulated by the co-activator protein comparative gene identification-58 (CGI-58, also known as α/β hydrolase domain containing 5, ABHD5)[36] and can be suppressed by the inhibitory protein G0/G1 switch 2 (G0S2).[37] We therefore determined ATGL activity in the presence and absence of mouse CGI-58, mouse G0S2, and Ai. As shown in Figure 1a–i, all ATGL orthologues were expressed, enzymatically active, stimulated by mouse CGI-58, and inactivated by mouse G0S2. Ai inhibited mouse (Figure 1a), rat (Figure 1b), goat (Figure 1c), dog (Figure 1e), and marmoset ATGL (Figure 1f), but not pig (Figure 1d), rhesus monkey (Figure 1g), or human ATGL (Figure 1h).
To develop an inhibitor for human ATGL, we screened compounds synthesized in the course of the development of Ai.[31] Screenings were performed in the presence of purified CGI-58 using cell lysates of Expi293 cells overexpressing ATGL as a source of enzymatic activity and radiolabeled triolein as substrate as described above (Figure 1). […] In an iterative optimization process, which encompassed the synthesis and testing of >150 compounds (not shown), we varied the nature of the top aryl ring (Figure 2a). Replacement of the top phenyl group with a pyridine moiety (compound 2) led to a significant improvement in inhibitor efficacy (IC50 = 3 μM), which we interpret as a result from a smaller angle between the 1,3-arrangement of the aryl- and the ester-substituents due to the shorter C–N bond length within the pyridine group. […] The introduction of a methoxy residue at this position finally led to compound NG-497 showing an IC50 value of 1 μM.
Experimental details, materials, and methods
Expression of recombinant ATGL constructs and preparation of cell lysates. Expi293 cells were cultivated in Expi293 Expression Medium (GIBCO, Thermo Fisher Scientific, Waltham, USA) at standard conditions (37°C, 5% CO2, 95% humidified atmosphere, 125 rpm). DNA constructs containing ATGL from different species and chimeric ATGL variants in pcDNA3.1(+)myc-His C Vector were obtained from BioCat GmbH (Heidelberg, Germany). Cells were transfected with ExpiFectamine293 Transfection Kit (GIBCO) in Opti-Mem reduced serum medium (GIBCO) according to the manufacturer’s instructions. After 48 h, cells were harvested by centrifugation and washed three times with PBS. Cells were disrupted in buffer A (0.25 M sucrose, 1 mM EDTA, 1 mM dithiothreitol, 20µg/ml leupeptin, 2 µg/ml antipain, 1 µg/ml pepstatin, pH 7.0) by sonication (Virsonic 475, Virtis, Gardiner, USA). Nuclei and debris were removed by centrifugation at 1,000 g and 4°C for 10 min. Protein concentrations were determined using Bio-Rad protein assay (Bio-Rad 785, Bio-Rad Laboratories, Munich, Germany) using BSA as standard.
Expression and purification of mouse CGI-58. CGI-58 was expressed and purified as described 1. In brief, the coding sequence of mouse Cgi-58 was cloned into pHis-Sumo and co-transformed with the plasmid pTf16 expressing the chaperone Tig into E. coli BL21(DE3). Cells were cultured overnight at 37°C and 180 rpm in the presence of 40 µg/ml kanamycin and 34 µg/ml chloramphenicol. Thereafter, cells were transferred into fresh LB medium, grown until OD600 of 0.6, and expression was induced […]
by the addition of 0.5 mM IPTG. […]

PNPLA1 = target: T2, PNPLA1 (Homo sapiens, UniProt Q8N8W4); test: PNPLA1-dependent ω-O-acylceramide formation in HEK293T cells; assay type: cell-based; details: NG-497 40 µM, Orlistat 40 µM
T2 construct: expressed in transfected cells; host or cells: HEK293T cells
Protocol: Fig. S3: Investigation of off-target effects of NG-497 on structurally and functionally related lipid hydrolases. (a) PNPLA1-dependent formation of acylceramides was monitored in a cell-based assay in HEK293T cells. Experiments were performed in the presence or absence of NG-497 (40 µM) and the non-selective lipase inhibitor Orlistat (40 µM). Orlistat, but not NG-497, inhibited PNPLA1/CGI-58-dependent ω-O-acylceramide formation. (b-h) Enzymes were overexpressed in Expi293 cells and cell lysates were used as source of enzymatic activity. […] Experiments were performed in the presence or absence of NG-497 (100 µM) and the formation of reaction products was monitored. […]
Data were calculated relative to the basal activity detected in LacZ-transfected controls. […]
LPL activity was inhibited using an anti-LPL antibody. All data are presented as mean ± S.D. Statistical significance was determined via ANOVA followed by Bonferroni post hoc test ( ***, p < 0.001). […]
Released free fatty acids were quantified via NEFA C kit (Fujifilm Wako Chemicals, Neuss, Germany) and release of p-nitrophenol was measured at 405 nm. […] Cellular ω-O-acylceramide formation was monitored using [1-14C]linoleic acid as tracer. […] The activity of purified human pancreatic lipase (MilliporeSigma #SRE0028) was determined as previously described7 in the presence or absence of NG-497 (100µM) or Orlistat (20 µM). […]

T2 sequence (Q8N8W4 whole entry): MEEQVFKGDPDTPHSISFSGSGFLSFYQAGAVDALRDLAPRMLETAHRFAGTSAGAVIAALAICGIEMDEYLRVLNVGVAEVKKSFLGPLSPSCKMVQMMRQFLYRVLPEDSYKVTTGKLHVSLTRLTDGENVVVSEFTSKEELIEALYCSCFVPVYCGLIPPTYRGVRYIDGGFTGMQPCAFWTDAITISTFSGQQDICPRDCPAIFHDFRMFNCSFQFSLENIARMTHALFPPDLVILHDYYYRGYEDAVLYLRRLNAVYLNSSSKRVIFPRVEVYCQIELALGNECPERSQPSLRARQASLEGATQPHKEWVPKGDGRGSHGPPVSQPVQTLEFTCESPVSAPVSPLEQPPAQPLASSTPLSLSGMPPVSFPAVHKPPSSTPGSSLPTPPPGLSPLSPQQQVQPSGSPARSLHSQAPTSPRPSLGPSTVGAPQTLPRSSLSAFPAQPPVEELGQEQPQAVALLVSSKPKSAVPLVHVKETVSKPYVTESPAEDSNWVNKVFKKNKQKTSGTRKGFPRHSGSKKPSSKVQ

SMILES	IC50 (human ATGL)	PNPLA1/CGI-58-dependent ω-O-acylceramide formation (PNPLA1)
CCOc1ccc(-c2cc(C)cc(C(=O)OC(C)C)n2)cc1 [compound 4]	1600 ± 100 nM	–
CCOc1ccc(-c2cccc(C(=O)OC(C)C)n2)cc1 [compound 3]	1800 nM	–
CCOC(=O)c1cccc(-c2ccc(OCC)cc2)c1 [compound 1]	35000 nM	–
CCOC(=O)c1cccc(-c2ccc(OCC)cc2)n1 [compound 2]	3000 nM	–
CCCCCCCCCCC[C@@H](C[C@@H]1OC(=O)[C@H]1CCCCCC)OC(=O)[C@H](CC(C)C)NC=O [Orlistat, reference compound]	–	inhibited
